{
  "source": "patent US20140330170A1",
  "about": "“Method of Quantifying Cancer Treatment” (Exelixis, Inc., priority 2012, published 2014)",
  "system": "metastatic CRPC patients with bone metastases",
  "assay": "Adaptive phase 2 trial (NCT00940225): case studies of the first three CRPC patients with bone metastases treated with compound 1",
  "format": "in vivo, human",
  "from_the_text": "All patients provided informed consent before study screening.",
  "key": {"[1]": {"conditions": "Patient 1, best response, 100 mg dose"}, "[2]": {"conditions": "Patient 2, best response, 100 mg dose"}, "[3]": {"conditions": "Patient 3, best response, 100 mg dose"}, "[4]": {"conditions": "three metastatic CRPC patients, summary"}},
  "data": [
    {"smiles": "COc1cc2nccc(Oc3ccc(NC(=O)C4(C(=O)Nc5ccc(F)cc5)CC4)cc3)c2cc1OC", "note": "[Compound 1, N-(4-{[6,7-bis(methyloxy)quinolin-4-yl]oxy}phenyl)-N′-(4-fluorophenyl)cyclopropane-1,1-dicarboxamide]", "values": [
      {"measurement": "PSA", "setting": "Patient 1, best response, change from baseline 430.4 ng/mL", "value": "−78", "unit": "%"},
      {"measurement": "Hemoglobin", "setting": "Patient 1, best response, change from baseline 13.5 g/dL", "value": "+1.4 g/dL"},
      {"measurement": "tALP", "setting": "Patient 1, best response, change from baseline 689 U/L", "value": "−77", "unit": "%"},
      {"measurement": "Pain", "setting": "[1]", "value": "Improvement"},
      {"measurement": "Tumor response", "setting": "[1]", "value": "−41", "unit": "%"},
      {"measurement": "PSA", "setting": "Patient 2, best response, change from baseline 14.7 ng/mL", "value": "+61%"},
      {"measurement": "Hemoglobin", "setting": "Patient 2, best response, change from baseline 13.3 g/dL", "value": "+1.8 g/dL"},
      {"measurement": "tALP", "setting": "Patient 2, best response, change from baseline 108 U/L", "value": "−6", "unit": "%"},
      {"measurement": "Bone scan", "setting": "[2]", "value": "Improvement"},
      {"measurement": "Pain", "setting": "[2]", "value": "Pain-free"},
      {"measurement": "Tumor response", "setting": "[2]", "value": "−20", "unit": "%"},
      {"measurement": "PSA", "setting": "Patient 3, best response, change from baseline 2.8 ng/mL", "value": "−57", "unit": "%"},
      {"measurement": "Hemoglobin", "setting": "Patient 3, best response, change from baseline 10.2 g/dL", "value": "+2.2 g/dL"},
      {"measurement": "tALP", "setting": "Patient 3, best response, change from baseline 869 U/L", "value": "−77", "unit": "%"},
      {"measurement": "Pain", "setting": "[3]", "value": "Pain-free"},
      {"measurement": "Tumor response", "setting": "[3]", "value": "−51", "unit": "%"},
      {"measurement": "soft tissue lesions", "setting": "all three patients, during therapy, summary", "value": "evidence of response or stabilization in soft tissue lesions"},
      {"measurement": "bone pain", "setting": "all three patients, summary", "value": "substantial reductions in bone pain"},
      {"measurement": "uptake of radiotracer on bone scan", "setting": "all three patients, summary", "value": "striking decrease in uptake of radiotracer on bone scan"},
      {"measurement": "bone lesions", "setting": "[4]", "value": "near complete resolution of bone lesions"},
      {"measurement": "bone pain and total serum alkaline phosphatase (tALP) levels", "setting": "[4]", "value": "marked reduction in bone pain and total serum alkaline phosphatase (tALP) levels"},
      {"measurement": "measurable disease", "setting": "[4]", "value": "reduction in measurable disease"}
    ]}
  ]
}
